Assay [1] concerns the target T1, PTPN2 (HiBIT-PTPN2 in 293T.109 cells) (Homo sapiens, UniProt P17706).
T1 construct: expressed in transfected cells; host or cells: 293T.109 (293T WT from ATCC)
T1 sequence (P17706 1-415): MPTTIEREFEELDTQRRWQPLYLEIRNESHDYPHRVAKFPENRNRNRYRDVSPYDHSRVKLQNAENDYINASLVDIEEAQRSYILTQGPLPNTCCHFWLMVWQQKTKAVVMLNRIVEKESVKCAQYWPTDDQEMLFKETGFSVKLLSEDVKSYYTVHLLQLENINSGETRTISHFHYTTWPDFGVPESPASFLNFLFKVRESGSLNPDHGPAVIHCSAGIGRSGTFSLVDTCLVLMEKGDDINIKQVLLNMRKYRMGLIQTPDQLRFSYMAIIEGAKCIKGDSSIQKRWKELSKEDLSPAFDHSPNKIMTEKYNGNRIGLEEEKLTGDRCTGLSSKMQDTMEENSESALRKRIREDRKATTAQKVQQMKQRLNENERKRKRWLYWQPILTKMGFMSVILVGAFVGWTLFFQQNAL
The assay is described as follows: HiBiT Degradation 293T.109 PTPN2 (Nano-Glo HiBiT Lytic Assay). The format is cell-based. As to conditions: 24.0 hours. The method in brief: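 Degradation read-out: lytic HiBiT luminescence after 24 h treatment (37 °C, 5% CO2) of 5000 293T cells per well expressing HiBiT-fused PTPN2 from an N-terminal tag. Dosing was 11 points, half-log steps down from 10 μM, in duplicate; vehicle-treated and no-reagent wells served as controls.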
(In general: The HiBiT peptide binds its large partner to form an active luciferase.)

Assay [2] deals with T2, PTPN2 (B16F10.4 cells) (Mus musculus, UniProt Q06180).
T2 construct: HiBiT; host or cells: B16F10.4
T2 sequence (Q06180 1-406): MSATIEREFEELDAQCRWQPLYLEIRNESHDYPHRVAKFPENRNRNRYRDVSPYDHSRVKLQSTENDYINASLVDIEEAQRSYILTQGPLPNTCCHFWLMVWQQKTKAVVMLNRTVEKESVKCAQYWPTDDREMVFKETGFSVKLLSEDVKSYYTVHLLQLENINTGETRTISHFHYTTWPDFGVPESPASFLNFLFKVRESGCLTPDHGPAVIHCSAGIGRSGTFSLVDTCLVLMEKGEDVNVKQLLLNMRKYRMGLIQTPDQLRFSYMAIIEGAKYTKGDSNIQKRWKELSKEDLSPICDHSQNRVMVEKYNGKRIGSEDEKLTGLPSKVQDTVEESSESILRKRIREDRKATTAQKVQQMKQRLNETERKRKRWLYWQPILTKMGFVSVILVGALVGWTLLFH
The assay is described as follows: HiBiT Degradation B16F10.4 PTPN2. The format is cell-based. To be noted: 24.0 hours.

For orientation: DC50 means the midpoint of the concentration-degradation curve. Lower therefore signals degradation at low concentration.

Consider `Cn1c(=O)n(C2CCC(=O)NC2=O)c2ccc(N3CCC(O)(CC(=O)Nc4cccc(CS(=O)(=O)N5CC[C@H](Nc6cccc(-c7sc(C(=O)O)c(OCC(=O)O)c7Cl)c6)CC5(C)C)c4)CC3)cc21` (stereo partly drawn) [Example 183, 3-(carboxymethoxy)-4-chloro-5-[3-[[(4S)-1-[[3-[[2-[1-[1-(2,6-dioxo-3-piperidyl)-3-methyl-2-oxo-benzimidazol-5-yl]-4-hydroxy-4-piperidyl]acetyl]amino]phenyl]methylsulfonyl]-2,2-dimethyl-4-piperidyl]amino]phenyl]thiophene-2-carboxylic acid], for which the half-maximal degradation concentration (DC50) in assay [1] and in assay [2] was 50 to 200 nM each time.

Take `CC1(C)C[C@H](Nc2cccc(-c3sc(C(=O)O)c(OCC(=O)O)c3Cl)c2)CCN1S(=O)(=O)Cc1cccc(NC(=O)N2CCC(c3ccc4c5c(cccc35)C(=O)N4C3CCC(=O)NC3=O)CC2)c1F` (stereo partly drawn) [Example 129, 3-(carboxymethoxy)-4-chloro-5-(3-(((4R)-1-((3-(4-(1-(2,6-dioxopiperidin-3-yl)-2-oxo-1,2-dihydrobenzo[cd]indol-6-yl)piperidine-1-carboxamido)-2-fluorobenzyl)sulfonyl)-2,2-dimethylpiperidin-4-yl)amino)phenyl)thiophene-2-carboxylic acid]: the figures for the DC50 in assay [1] and in assay [2] were 200 to 1000 nM and under 50 nM, respectively.

On to `Cn1c(=O)n(C2CCC(=O)NC2=O)c2cccc(OC3CCN(C(=O)Nc4cccc(CS(=O)(=O)N5CC[C@H](Nc6cccc(-c7sc(C(=O)O)c(OCC(=O)O)c7Cl)c6)CC5(C)C)c4)CC3)c21` (stereo partly shown) [Example 151], for which the 50% degradation concentration (DC50) in assay [1] and in assay [2] was 200 to 1000 nM in each case.

`O=C(O)COc1c(C(=O)O)sc(-c2cccc(NC3CCN(S(=O)(=O)Cc4ccc(F)c(NC(=O)C5CN(C(=O)COc6cccc7c6CN(C6CCC(=O)NC6=O)C7=O)C5)c4)CC3)c2)c1Cl` (stereo not shown) [Example 93]: the DC50 in assay [1] is 50 to 200 nM; in assay [2], 200 to 1000 nM.

Consider `Cc1nn(C2CCC(=O)NC2=O)c2ccc(C3CCN(C(=O)Nc4cccc(CS(=O)(=O)N5CC[C@H](Nc6cccc(-c7sc(C(=O)O)c(OCC(=O)O)c7Cl)c6)CC5(C)C)c4)CC3)cc12` (stereo partly drawn) [Example 233, 3-(carboxymethoxy)-4-chloro-5-[3-[[(4S)-1-[[3-[[4-[1-(2,6-dioxo-3-piperidyl)-3-methyl-indazol-5-yl]piperidine-1-carbonyl]amino]phenyl]methylsulfonyl]-2,2-dimethyl-4-piperidyl]amino]phenyl]thiophene-2-carboxylic acid], for which the DC50 in assay [1] and in assay [2] was 200 to 1000 nM each time.

Turning to `Cn1c(=O)n([C@H]2CCC(=O)NC2=O)c2ccc(C3CCN(C(=O)Nc4cccc(CS(=O)(=O)N5CC[C@H](Nc6cccc(-c7sc(C(=O)O)c(OCC(=O)O)c7Cl)c6)CC5(C)C)c4)CC3)cc21` (single isomer, unassigned) [Example 234], the 50% degradation concentration (DC50) in assay [1] and in assay [2] was under 50 nM each time.

Take `CC1(C)C[C@@H](Nc2cccc(-c3sc(C(=O)O)c(OCC(=O)O)c3Cl)c2)CCN1S(=O)(=O)Cc1cccc(NC(=O)N2CCC(c3ccc4c(c3)C3(CC3)C(=O)N4C3CCC(=O)NC3=O)CC2)c1` (stereo partly shown) [Example 150]: the half-maximal degradation concentration (DC50) in assay [1] and in assay [2] was 50 to 200 nM in each case.

As to `Cn1c(=O)n(C2CCC(=O)NC2=O)c2ccc(N3CC(OCC(=O)Nc4cccc(CS(=O)(=O)N5CC[C@H](Nc6cccc(-c7sc(C(=O)O)c(OCC(=O)O)c7Cl)c6)CC5(C)C)c4)C3)cc21` (stereo partly drawn) [Example 107, 3-(carboxymethoxy)-4-chloro-5-[3-[[(4S)-1-[[3-[[2-[1-[1-(2,6-dioxo-3-piperidyl)-3-methyl-2-oxo-benzimidazol-5-yl]azetidin-3-yl]oxyacetyl]amino]phenyl]methylsulfonyl]-2,2-dimethyl-4-piperidyl]amino]phenyl]thiophene-2-carboxylic acid], the figures for the half-maximal degradation concentration (DC50) in assay [1] and in assay [2] were 50 to 200 nM and 200 to 1000 nM, respectively.

For the compound `CC1(C)C[C@@H](Nc2cccc(-c3sc(C(=O)O)c(OCC(=O)O)c3Cl)c2F)CCN1S(=O)(=O)Cc1ccc(F)c(NC(=O)C2CN(C(=O)CNc3cccc4c3CN([C@H]3CCC(=O)NC3=O)C4=O)C2)c1` (single isomer, unassigned) [Example 148b], the DC50 is under 50 nM in assay [1] and 200 to 1000 nM in assay [2].

Consider `CC(C)(c1cccc(NC(=O)CCCCCCNC(=O)CNc2ccc3c(c2)CN(C2CCC(=O)NC2=O)C3=O)c1)S(=O)(=O)N1CCC(Nc2cccc(-c3sc(C(=O)O)c(OCC(=O)O)c3Cl)c2)CC1` (stereo not shown) [Example 39, 3-(carboxymethoxy)-4-chloro-5-[3-[[1-[1-[3-[7-[[2-[[2-(2,6-dioxo-3-piperidyl)-1-oxo-isoindolin-5-yl]amino]acetyl]amino]heptanoylamino]phenyl]-1-methyl-ethyl]sulfonyl-4-piperidyl]amino]phenyl]thiophene-2-carboxylic acid], for which the half-maximal degradation concentration (DC50) is 200 to 1000 nM in assay [1] and at least 1000 nM in assay [2].

Consider `CC1(C)C[C@@H](Nc2cccc(-c3sc(C(=O)O)c(OCC(=O)O)c3Cl)c2)CCN1S(=O)(=O)Cc1ccc(F)c(NC(=O)C2CN(C(=O)CNc3cccc4c3CN(C3CCC(=O)NC3=O)C4=O)C2)c1` (stereo partly shown) [Example 109], for which the figures for the DC50 in assay [1] and in assay [2] were under 50 nM and 200 to 1000 nM, respectively.

Turning to `CC1(C)C[C@@H](Nc2cccc(-c3sc(C(=O)O)c(OCC(=O)O)c3Cl)c2)CCN1S(=O)(=O)Cc1cccc(NC(=O)N2CCC(c3ccc4c5c(cccc35)N(C3CCC(=O)NC3=O)C4=O)CC2)c1` (stereo partly drawn) [Example 205, 3-(carboxymethoxy)-4-chloro-5-[3-[[(4S)-1-[[3-[[4-[1-(2,6-dioxo-3-piperidyl)-2-oxo-benzo[cd]indol-S-yl]piperidine-1-carbonyl]amino]phenyl]methylsulfonyl]-2,2-dimethyl-4-piperidyl]amino]phenyl]thiophene-2-carboxylic acid], the DC50 in assay [1] and in assay [2] was 50 to 200 nM in each case.

As to `CC1(C)C[C@@H](Nc2cccc(-c3sc(C(=O)O)c(OCC(=O)O)c3Cl)c2)CCN1S(=O)(=O)Cc1cccc(NC(=O)OC2CCN(C(=O)CNc3cccc4c3CN(C3CCC(=O)NC3=O)C4=O)CC2)c1` (stereo partly shown) [Example 85], the results for the DC50 in assay [1] and in assay [2] were 50 to 200 nM and 200 to 1000 nM, respectively.

For `Cn1c(=O)n(C2CCC(=O)NC2=O)c2ccc(CCC(=O)Nc3cccc(CS(=O)(=O)N4CCC(Nc5cccc(-c6sc(C(=O)O)c(OCC(=O)O)c6Cl)c5)CC4)c3)cc21` (stereo not shown) [Example 49, 3-(carboxymethoxy)-4-chloro-5-(3-((1-((3-(3-(1-(2,6-dioxopiperidin-3-yl)-3-methyl-2-oxo-2,3-dihydro-1H-benzo[d]imidazol-5-yl)propanamido)benzyl)sulfonyl)piperidin-4-yl)amino)phenyl)thiophene-2-carboxylic acid], the DC50 in assay [1] and in assay [2] was 200 to 1000 nM each time.

Regarding `CC(C)n1c(=O)n(C2CCC(=O)NC2=O)c2ccc(C3CCN(C(=O)Nc4cccc(CS(=O)(=O)N5CC[C@H](Nc6cccc(-c7sc(C(=O)O)c(OCC(=O)O)c7Cl)c6)CC5(C)C)c4)CC3(F)F)cc21` (stereo partly drawn) [Example 181, 3-(carboxymethoxy)-4-chloro-5-[3-[[(4S)-1-[[3-[[4-[1-(2,6-dioxo-3-piperidyl)-3-isopropyl-2-oxo-benzimidazol-5-yl]-3,3-difluoro-piperidine-1-carbonyl]amino]phenyl]methylsulfonyl]-2,2-dimethyl-4-piperidyl]amino]phenyl]thiophene-2-carboxylic acid], the DC50 in assay [1] and in assay [2] was under 50 nM in each case.

`O=C(O)COc1c(C(=O)O)sc(-c2cccc(NC3CCN(S(=O)(=O)Cc4cccc(NC(=O)CCCCCCNC(=O)CNc5cccc6c5C(=O)N(C5CCC(=O)NC5=O)C6)c4)CC3)c2)c1Cl` (stereo not shown) [Example 30, 3-(carboxymethoxy)-4-chloro-5-[3-[[1-[[3-[7-[[2-[[2-(2,6-dioxo-3-piperidyl)-3-oxo-isoindolin-4-yl]amino]acetyl]amino]heptanoylamino]phenyl]methylsulfonyl]-4-piperidyl]amino]phenyl]thiophene-2-carboxylic acid]: the values for the 50% degradation concentration (DC50) in assay [1] and in assay [2] were 200 to 1000 nM and at least 1000 nM, respectively.

For the compound `O=C(O)COc1c(C(=O)O)sc(-c2cccc(NC3CCN(S(=O)(=O)Cc4cccc(NC(=O)N5CCC(c6ccc7c8c(cccc68)C(=O)N7C6CCC(=O)NC6=O)CC5)c4)CC3)c2)c1Cl` (stereo not shown) [Example 173, 3-(carboxymethoxy)-4-chloro-5-[3-[[1-[[3-[[4-[1-(2,6-dioxo-3-piperidyl)-2-oxo-benzo[cd]indol-6-yl]piperidine-1-carbonyl]amino]phenyl]methylsulfonyl]-4-piperidyl]amino]phenyl]thiophene-2-carboxylic acid], the DC50 in assay [1] was 50 to 200 nM; in assay [2] it was under 50 nM.

Source of the values: US20250302815A1, “PROTEIN TYROSINE PHOSPHATASE TARGETING LIGANDS” (CALICO LIFE SCIENCES LLC, priority 2021, published 2025).
